Source: paper PMC6204216 (Archives of biochemistry and biophysics, 2018)
Like-named read-outs stand apart in the source and are kept apart here.

Assays:
AChE [1] = target: T1, AChE (Homo sapiens, UniProt P22303); conditions: cited from earlier work
Target sequence in this assay (P22303 32-614): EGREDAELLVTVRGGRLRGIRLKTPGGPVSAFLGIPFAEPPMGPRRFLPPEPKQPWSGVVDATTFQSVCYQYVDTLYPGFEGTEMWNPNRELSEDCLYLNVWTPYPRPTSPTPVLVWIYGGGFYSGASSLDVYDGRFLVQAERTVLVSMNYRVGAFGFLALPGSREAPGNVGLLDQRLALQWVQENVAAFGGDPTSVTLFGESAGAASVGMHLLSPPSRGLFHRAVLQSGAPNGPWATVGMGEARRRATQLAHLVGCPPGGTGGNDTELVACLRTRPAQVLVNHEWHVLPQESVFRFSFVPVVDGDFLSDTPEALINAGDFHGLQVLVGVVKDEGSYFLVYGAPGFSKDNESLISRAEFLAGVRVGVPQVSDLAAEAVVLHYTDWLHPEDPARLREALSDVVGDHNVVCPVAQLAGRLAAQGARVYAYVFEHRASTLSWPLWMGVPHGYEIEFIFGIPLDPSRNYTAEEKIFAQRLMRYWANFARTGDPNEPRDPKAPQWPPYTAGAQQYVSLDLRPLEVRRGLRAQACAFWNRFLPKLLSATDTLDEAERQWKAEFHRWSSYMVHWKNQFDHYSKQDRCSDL

AChE [2] = target: T1, AChE; test: Solvent deuterium oxide kinetic isotope effect on decarbamoylation; assay type: biochemical; conditions: 25 °C, pH 7.0, mean ± SE
Target sequence in this assay (P22303 32-617 isoform P22303-2 limits assumed): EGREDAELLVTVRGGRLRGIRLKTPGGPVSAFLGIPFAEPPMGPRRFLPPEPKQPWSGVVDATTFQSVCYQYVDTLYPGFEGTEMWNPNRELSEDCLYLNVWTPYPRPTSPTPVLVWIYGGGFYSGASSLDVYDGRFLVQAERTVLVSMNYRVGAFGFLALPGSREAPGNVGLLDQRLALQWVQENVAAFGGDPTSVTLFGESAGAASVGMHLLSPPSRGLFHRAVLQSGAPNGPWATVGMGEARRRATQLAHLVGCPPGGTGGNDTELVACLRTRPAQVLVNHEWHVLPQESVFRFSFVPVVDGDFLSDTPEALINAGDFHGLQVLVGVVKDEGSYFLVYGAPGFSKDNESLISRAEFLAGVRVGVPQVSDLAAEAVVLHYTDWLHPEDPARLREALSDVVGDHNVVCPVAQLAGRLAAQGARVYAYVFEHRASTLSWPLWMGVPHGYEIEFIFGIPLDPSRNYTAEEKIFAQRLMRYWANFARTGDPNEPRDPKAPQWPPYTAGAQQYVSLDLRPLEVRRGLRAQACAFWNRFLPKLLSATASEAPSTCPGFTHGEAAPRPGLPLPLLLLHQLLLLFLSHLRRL

AChE [3] = target: T1, AChE; conditions: for k21 × 10^6 (decarbamoylation rate constant): 25 °C, absence of carbamate, mean ± SEM of n measurements
Target sequence in this assay (P22303 32-617 isoform P22303-2 limits assumed): as above

AChE [4] = target: T1, AChE; assay type: biochemical
Target sequence in this assay (P22303 32-617 isoform P22303-2 limits assumed): as above

AChE in rat brain = conditions: in vivo, 37 °C; cited from earlier work
AChE [5] = target: T1, AChE; test: Literature carbamoylation and decarbamoylation of AChE; assay type: biochemical
Target sequence in this assay (P22303 32-614): as the sequence (P22303 32-614) above

AChE [6] = target: T1, AChE; test: Carbamoylation of AChE, qualitative observations; assay type: biochemical
Target sequence in this assay (P22303 32-614): as above

[7] = Stability of aqueous solutions; assay type: physicochemical
AChE [8] = target: T1, AChE; conditions: after carbamoylation of hAChE; cited from earlier work
Target sequence in this assay (P22303 32-617 isoform P22303-2 limits assumed): as the sequence (P22303 32-617 isoform P22303-2 limits assumed) above

[9] = k12 data fitted to Eq. 1a, 25 °C

SMILES: CCN(CC)C(=O)OCC[N+](C)(C)C [N,N-diethylcarbamoyl choline, reference compound]
- Formation of N,N-diethylcarbamoylated AChE (AChE [1]): failed to detect

SMILES: CN(C)C(=O)Oc1cccc([N+](C)(C)C)c1 [neostigmine, reference compound]
- k21 ^H2O / k21^D2O (deuterium oxide kinetic isotope effect on k21) (AChE [2]): 2.4 ± 0.2
- k21 × 10^6 (decarbamoylation rate constant) (AChE [3]; second protocol): 3600 ± 300 min^−1

SMILES: CCN(CC)C(=O)Oc1cccc([N+](C)(C)C)c1 [N,N-diethyl HTMA]
- k21 ^H2O / k21^D2O (deuterium oxide kinetic isotope effect on k21) (AChE [2]): 1.1 ± 0.2
- k21 × 10^6 (decarbamoylation rate constant) (AChE [3]; second protocol): 16 ± 5 min^−1

SMILES: CNC(=O)Oc1cccc2ccccc12 [carbaryl, reference compound]
- k21 × 10^6 (decarbamoylation rate constant) (AChE [3]; second protocol): 11300 ± 600 min^−1

SMILES: CNC(=O)Oc1cccc([N+](C)(C)C)c1 [Monomethyl neostigmine]
- k21 ^H2O / k21^D2O (deuterium oxide kinetic isotope effect on k21) (AChE [2]; listed as N-monomethyl HTMA): 2.8 ± 0.2
- k21 ^H2O / k21^D2O (deuterium oxide kinetic isotope effect on k21) (AChE [2]; listed as N-monomethyl neostigmine): 2.8
- k21 (AChE [4]; first protocol, Figure 2, paper calls estimates below 0.01 min^−1 unreliable): 0.013 min⁻¹
- k2/KD (AChE [4]; fitted to Eq. 1a): 16 ± 2 min^−1μM^−1
- Kd (AChE [4]; [9]): 3.2 ± 0.4 µM
- k2 (carbamoylation) (AChE [4]; [9]): 51 ± 2 min⁻¹
- k21 × 10^6 (decarbamoylation rate constant) (AChE [3]; second protocol): 12300 ± 400 min^−1
- R (fraction of total enzyme carbamoylated at reaction initiation) (AChE [3]; after spin column, Figure 3 fit): 0.90
- k21 (AChE [3]; second protocol, Figure 3a fit, 0.25 mM acetylthiocholine): 12.9 ± 0.02 × 10^−3 min^−1

SMILES: CCN(CC)C(=O)F [N,N-diethyl F, N,N-diethylcarbamoyl fluoride]
- k21 × 10^6 (decarbamoylation rate constant) (AChE [3]; second protocol): 7 ± 1 min^−1
- Recovery half time of AChE (AChE in rat brain): 182 h
- Formation of N,N-diethylcarbamoylated AChE (AChE [1]): failed to detect

SMILES: C[N+](C)(C)CCOC(N)=O [carbamoyl choline]
- k21 larger than that for N-monomethylcarbamoylated AChE (AChE [5]): 10 fold

SMILES: CCN(C)C(=O)Oc1cccc([N+](C)(C)C)c1 [N-ethyl-N-methyl HTMA]
- k21 ^H2O / k21^D2O (deuterium oxide kinetic isotope effect on k21) (AChE [2]): 1.8 ± 0.2
- k21 × 10^6 (decarbamoylation rate constant) (AChE [3]; second protocol): 150 ± 20 min^−1

SMILES: CCN(C)C(=O)Cl [EMCC, N-ethyl–N-methylcarbamoyl chloride]
- Carbamoylation of AChE (AChE [6]): poorly
- Stability of aqueous solutions [7]: very unstable

SMILES: C[C@@H]1CN(CCCCCCCCNC(=O)Oc2ccc3c(c2)[C@]2(C)CCN(C)[C@@H]2N3C)C[C@H](C)O1 [MF268]
- k21 (AChE [8]): too small to be measured
